# According to ChEMBL document CHEMBL1909623, “Synthesis and preliminary evaluation of amiloride analogs as inhibitors of the urokinase-type plasminogen activator (uPA)” (Bioorg Med Chem Lett, 2011):
# Molecular target: Sodium/hydrogen exchanger 1 (Homo sapiens) (UniProt P19634)
# Assay: Ratio of compound K0.5 to amiloride K0.5 for NHE1
# Sequence of Sodium/hydrogen exchanger 1 (Homo sapiens) (P19634 whole entry): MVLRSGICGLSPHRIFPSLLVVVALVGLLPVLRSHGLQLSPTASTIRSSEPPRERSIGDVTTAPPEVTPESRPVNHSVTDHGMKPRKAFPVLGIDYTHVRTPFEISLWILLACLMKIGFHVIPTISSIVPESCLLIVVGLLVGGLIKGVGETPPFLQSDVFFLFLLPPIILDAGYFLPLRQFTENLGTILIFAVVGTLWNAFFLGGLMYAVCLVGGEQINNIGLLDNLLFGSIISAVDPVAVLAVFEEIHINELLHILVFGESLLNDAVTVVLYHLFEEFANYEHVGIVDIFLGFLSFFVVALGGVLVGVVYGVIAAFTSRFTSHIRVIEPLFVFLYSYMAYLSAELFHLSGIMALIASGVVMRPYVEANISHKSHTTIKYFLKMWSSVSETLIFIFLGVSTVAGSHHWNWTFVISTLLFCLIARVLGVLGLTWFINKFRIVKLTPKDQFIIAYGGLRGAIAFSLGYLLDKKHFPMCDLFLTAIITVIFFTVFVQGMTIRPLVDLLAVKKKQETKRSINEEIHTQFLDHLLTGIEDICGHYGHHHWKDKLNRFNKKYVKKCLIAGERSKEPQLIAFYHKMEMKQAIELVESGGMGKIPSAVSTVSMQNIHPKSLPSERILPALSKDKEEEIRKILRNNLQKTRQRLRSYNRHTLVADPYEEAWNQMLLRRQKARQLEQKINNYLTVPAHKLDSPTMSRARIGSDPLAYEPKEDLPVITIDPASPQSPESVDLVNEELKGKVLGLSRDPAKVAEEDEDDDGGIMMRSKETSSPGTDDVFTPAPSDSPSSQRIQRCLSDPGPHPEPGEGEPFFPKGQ
row,SMILES,Ratio
1,N=C(N)NC(=O)c1nc(Cl)c(N2CCCCCC2)nc1N,524
2,N=C(N)NC(=O)c1nc(Br)c(N2CCCCCC2)nc1N,566

# Next, values leading:
row,Ratio,SMILES
1,313,CCN(c1nc(N)c(C(=O)NC(=N)N)nc1I)C(C)C
2,140,CCN(c1nc(N)c(C(=O)NC(=N)N)nc1Cl)C(C)C

# Molecular target: T1, Urokinase-type plasminogen activator (Homo sapiens, UniProt P00749)
# Assay: Inhibition of urokinase-type plasminogen activator
row,SMILES,IC50 [µM]
1,N=C(N)NC(=O)c1cnccn1,> 1000
2,CCOP(=O)(CCNc1nc(N)c(C(=O)NC(=N)N)nc1Cl)OCC,44
3,N=C(N)NC(=O)c1ccccn1 [AMINO(PICOLINAMIDO)METHANIMINIUM CHLORIDE],> 1000
4,N=C(N)NC(=O)c1nc(Cl)c(NCc2ccncc2)nc1N,6
5,N=C(N)NC(=O)c1nc(Cl)c(NCc2ccccc2)nc1N,8
6,N=C(N)NC(=O)c1nc(Cl)c(NCCc2nnn[nH]2)nc1N,61
7,N=C(N)NC(=O)c1nc(Cl)c(NCc2nnn[nH]2)nc1N,177
8,N=C(N)NC(=O)c1cccnc1 [AMINO(NICOTINAMIDO)METHANIMINIUM CHLORIDE],> 1000
9,COC(=O)CNc1nc(N)c(C(=O)NC(=N)N)nc1Cl,26
10,N=C(N)NC(=O)c1nc(Cl)c(NCCSCc2ccccc2)nc1N,21
11,Nc1noc(-c2nc(Cl)c(N)nc2N)n1,> 1000
12,N#CCNc1nc(N)c(C(=O)NC(=N)N)nc1Cl,50
13,N=C(N)NC(=O)c1nc(C#Cc2ccccc2)c(N)nc1N,2
14,CCN(CC)CCNc1nc(N)c(C(=O)NC(=N)N)nc1Cl,14
15,NNC(=O)c1nc(Cl)c(N)nc1N,> 1000
16,N=C(N)NC(=O)c1ncc(N)nc1N,19
17,N=C(N)NC(=O)c1nc(-c2ccccc2)c(N)nc1N,10
18,N#CCCNc1nc(N)c(C(=O)NC(=N)N)nc1Cl,16
19,N=C(N)NC(=O)c1nc(Cl)c(NCc2ccc(F)cc2)nc1N,6
20,CCOP(=O)(NNc1nc(N)c(C(=O)NC(=N)N)nc1Cl)OCC,10
21,N=C(N)NC(=O)c1nc(Cl)c(N2CCCCCC2)nc1N,6

# More lines, now with the values ahead:
row,IC50 [µM],SMILES
1,> 1000,CCOP(=O)(O)CCNc1nc(N)c(C(=O)NC(=N)N)nc1Cl
2,37,CCOP(=O)(CNc1nc(N)c(C(=O)NC(=N)N)nc1Cl)OCC
3,30,N=C(N)NC(=O)c1nc(Cl)c(NCC[n+]2ccccc2)nc1N
4,35,Cc1ccc(S(=O)(=O)NCCNc2nc(N)c(C(=O)NC(=N)N)nc2Cl)cc1
5,15,CN(CCNc1nc(N)c(C(=O)NC(=N)N)nc1Cl)Cc1ccccc1
6,25,CCOC(=O)CCNc1nc(N)c(C(=O)NC(=N)N)nc1Cl
7,16,N=C(N)NC(=O)c1nc(Cl)c(NCCc2ccccc2)nc1N
8,> 1000,N=C(N)NC(=O)c1nc(Cl)c(NCCP(=O)(O)O)nc1N
9,> 1000,N=C(N)NC(=O)c1nc(Cl)c(NCCS(=O)(=O)O)nc1N
10,120,N=C(N)NC(=O)c1ncc(NCCc2ccccc2)nc1N
11,2,N=C(N)NC(=O)c1nc(I)c(N)nc1N
12,5,N=C(N)NC(=O)c1nc(Br)c(N)nc1N
13,> 1000,N=C(N)NC(=O)c1cnc(Cl)c(Cl)c1
14,> 1000,N=C(N)NC(=O)c1c[nH]cn1
15,110,N=C(N)NC(=O)c1nc(Cl)c(NCC(=O)O)nc1N
16,222,COc1cc(N)c(Cl)cc1C(=O)NC(=N)N
17,> 1000,N=C(N)NC(=O)c1ccccc1 [AMINO(BENZAMIDO)METHANIMINIUM CHLORIDE]
18,> 1000,N=C(N)NC(=O)c1nc(Cl)cnc1N
19,28,N=C(N)NC(=O)c1nc(Cl)c(NCCNCc2ccccc2)nc1N
20,38,N=C(N)NC(=O)c1nc(Cl)c(NCc2ccccn2)nc1N
21,15,N=C(N)NC(=O)c1nc(Cl)c(NCCS(=O)(=O)Cc2ccccc2)nc1N
22,17,N=C(N)NC(=O)c1nc(Cl)c(NCc2cccnc2)nc1N
23,43,N=C(N)NC(=O)c1ncc(NCc2ccccc2)nc1N
24,102,N=C(N)NC(=O)c1nc(Cl)c(NCCC(=O)O)nc1N
25,> 1000,N=C(N)NC(=O)c1nc(Cl)c(NCP(=O)(O)O)nc1N
26,6,CCN(c1nc(N)c(C(=O)NC(=N)N)nc1Cl)C(C)C
27,> 1000,N=C(N)NC(=O)c1cnc(N)c(Br)n1

# Molecular target: Sodium/hydrogen exchanger 1 (Homo sapiens) (UniProt P19634)
# Assay: Inhibition of NHE1
row,SMILES,K0.5 [µM]
1,N=C(N)NC(=O)c1nc(Cl)c(N)nc1N,7

# Molecular target: T1, Urokinase-type plasminogen activator
# Assay: Ratio of compound K0.5 to amiloride K0.5 for urokinase-type plasminogen activator
row,SMILES,Ratio IC50
1,CCN(c1nc(N)c(C(=O)NC(=N)N)nc1Cl)C(C)C,2
2,N=C(N)NC(=O)c1nc(Cl)c(N2CCCCCC2)nc1N,2
